In brackets after ≈: the same amount, converted by molar mass. Values belong to the molecule of their own block, whether it stands above or below them.
Experiments:
[1] = tested on: CH1; assay: Cytotoxicity against drug resistant human CH1 cells assessed as cell growth inhibition; format: functional, cell-based
[2] = tested on: CH1; assay: Cytotoxicity against human CH1 cells assessed as cell growth inhibition; format: functional, cell-based
[3] = tested on: A2780; assay: Cytotoxicity against human A2780 cells assessed as cell growth inhibition; format: functional, cell-based
[4] = tested on: A2780; assay: Cytotoxicity against drug resistant human A2780 cells assessed as cell growth inhibition; format: functional, cell-based
[5] = tested on: K562; assay: Antiproliferative activity against human K562 cells assessed as cell growth inhibition; format: functional
[6] = tested on: SR; assay: Antiproliferative activity against human SR cells assessed as cell growth inhibition; format: functional
[7] = tested on: HL-60; assay: Antiproliferative activity against human HL-60 cells assessed as cell growth inhibition; format: functional
[8] = tested on: RPMI-8226; assay: Antiproliferative activity against human RPMI-8226 cells assessed as cell growth inhibition; format: functional
[9] = tested on: MOLT-4; assay: Antiproliferative activity against human MOLT-4 cells assessed as cell growth inhibition; format: functional
[10] = Selectivity index, ratio of CC50 for rat L6 cells to IC50 for Plasmodium falciparum K1 […]; format: toxicity, cell-based; details: read-out: Ratio CC50/IC50
[11] = tested on: MOLT-3; assay: Antiproliferative activity against human MOLT-3 cells assessed as cell growth inhibition; format: functional, cell-based
[12] = tested on: Plasmodium falciparum; assay: Antimalarial activity against Plasmodium falciparum K1 […] assessed as parasite growth inhibition; format: functional, organism-based
[13] = Selectivity index, ratio of IC50 for rat L6 cells to IC50 for erythrocytic Plasmodium falciparum K1; format: toxicity; details: read-out: Ratio IC50
[14] = Resistance index, ratio of IC50 for erythrocytic Plasmodium falciparum K1 to IC50 for erythrocytic Plasmodium falciparum NF54
[15] = Selectivity index, ratio of IC50 for rat L6 cells to IC50 for erythrocytic Plasmodium falciparum NF54; format: toxicity; details: read-out: Ratio IC50
[16] = tested on: Plasmodium falciparum; assay: Antimalarial activity against erythrocytic Plasmodium falciparum NF54 assessed as parasite growth inhibition incubated for 48 hrs by [3H]-hypoxanthine incorporation assay; format: functional, organism-based
[17] = Cytotoxicity against rat L6 cells assessed as cell growth inhibition incubated for 70 hrs by alamar blue staining based microscopy; format: toxicity
[18] = tested on: Hemozoin; assay: Inhibition of detergent-mediated beta-hematin formation incubated for 5 to 6 hrs by absorbance based assay
[19] = tested on: Plasmodium falciparum; assay: Antimalarial activity against erythrocytic chloroquine/pyrimethamine resistant Plasmodium falciparum K1 assessed as parasite growth inhibition incubated for 48 hrs by [3H]-hypoxanthine incorporation assay; format: functional, organism-based
[20] = tested on: Plasmodium berghei; assay: Antimalarial activity against erythrocytic Plasmodium berghei ANKA infected in NMRI mouse assessed as reduction in parasitemia at 40 mg/kg, ip administered for 4 consecutive days measured after 24 hrs post last dose by FACS analysis relative to control; format: functional; set-up: scale not given: the % may be the effect or the level left
[21] = tested on: Trypanosoma brucei; assay: Antitrypanosomal activity against Trypanosoma brucei assessed as parasite growth inhibition; format: functional, organism-based
[22] = Selectivity index, ratio of IC50 for rat L6 cells to IC50 for Plasmodium falciparum K1; format: toxicity; details: read-out: Ratio IC50
[23] = tested on: Plasmodium falciparum; assay: Antimalarial activity against Plasmodium falciparum NF54 assessed as parasite growth inhibition; format: functional, organism-based
[24] = Cytotoxicity against rat L6 cells assessed as cell growth inhibition; format: toxicity, cell-based
[25] = Selectivity index, ratio of IC50 for rat L6 cells to IC50 for Plasmodium falciparum NF54; format: toxicity; details: read-out: Ratio IC50
[26] = tested on: Hemozoin; assay: Inhibition of beta-hematin formation
[27] = tested on: Plasmodium falciparum; assay: Antimalarial activity against Plasmodium falciparum K1 assessed as parasite growth inhibition; format: functional, organism-based
[28] = tested on: MCF7; assay: Antiproliferative activity against human MCF7 cells assessed as cell growth inhibition; format: functional, cell-based
[29] = tested on: A549; assay: Antiproliferative activity against human A549 cells assessed as cell growth inhibition; format: functional, cell-based
[30] = tested on: HeLa; assay: Antiproliferative activity against human HeLa cells assessed as cell growth inhibition; format: functional, cell-based
[31] = tested on: DU-145; assay: Antiproliferative activity against human DU-145 cells assessed as cell growth inhibition; format: functional
[32] = molecular target: T1, Telomerase reverse transcriptase (Homo sapiens, UniProt O14746); assay: Inhibition of telomerase derived from human K562 cell extract incubated for 30 mins by TRAP assay; format: cell-free
[33] = tested on: Jurkat; assay: Antiproliferative activity against human Jurkat cells assessed as cell growth inhibition incubated for 4 days by sulphorhodamine assay; format: functional, cell-based; details: 96 h
[34] = Antiproliferative activity against […] LLTC cells assessed as cell growth inhibition incubated for 4 days by sulphorhodamine assay; format: functional, cell-based; details: LLTC cell line, 96 h
[35] = tested on: P388; assay: Antiproliferative activity against mouse P388 cells assessed as cell growth inhibition by measuring [3H]TdR uptake incubated for 3 days; format: functional, cell-based
[36] = molecular target: T1, Telomerase reverse transcriptase; assay: Inhibition of telomerase derived from human A2780 cell extract by TRAP assay; format: cell-free
[37] = tested on: Plasmodium falciparum; assay: Antimalarial activity against chloroquine/pyrimethamine resistant Plasmodium falciparum K1 assessed as parasite growth inhibition by measuring [3H]-hypoxanthine incubated for 24 hrs; format: functional, organism-based
[38] = tested on: HCT-116; assay: Antiproliferative activity against human HCT-116 cells assessed as cell growth inhibition; format: functional, cell-based
[39] = tested on: Plasmodium falciparum; assay: Antimalarial activity against chloroquine/mefloquine resistant Plasmodium falciparum clinical isolates assessed as parasite growth inhibition incubated for 24 hrs by microtechnique method; format: functional, organism-based
[40] = tested on: Plasmodium falciparum; assay: Antimalarial activity against Plasmodium falciparum Dd2 assessed as parasite growth inhibition incubated for 48 hrs by SYBR green dye based fluorescence assay; format: functional, organism-based; details: Dd2, 48 h
[41] = tested on: Plasmodium falciparum; assay: Antimalarial activity against Plasmodium falciparum INDO assessed as parasite growth inhibition incubated for 48 hrs by SYBR green dye based fluorescence assay; format: functional, organism-based
[42] = tested on: Hemozoin; assay: Inhibition of detergent-mediated beta-hematin formation incubated for 6 hrs by multiwell plate reader analysis
[43] = tested on: Plasmodium berghei; assay: Antimalarial activity against Plasmodium berghei ANKA infected in BALB/c mouse assessed as parasite growth inhibition at 50 mg/kg, po administered for 4 consecutive days measured for 7 to 13 days by geimsa dye based microscopy relative to control; format: functional; set-up: scale not given: the % may be the effect or the level left; details: time 7-13 day
[44] = tested on: Plasmodium falciparum; assay: Antimalarial activity against Plasmodium falciparum 3D7 assessed as parasite growth inhibition incubated for 48 hrs by SYBR green dye based fluorescence assay; format: functional, organism-based; details: 3D7, 48 h
[45] = Selectivity index, ratio of CC50 for human Huh-7 cells to IC50 for Plasmodium falciparum 3D7; format: toxicity; details: read-out: Ratio CC50/IC50
[46] = molecular target: DNA topoisomerase 2-beta (Homo sapiens) (UniProt Q02880); assay: Inhibition of human topoisomerase-2-beta
[47] = tested on: Plasmodium berghei; assay: Antimalarial activity against Plasmodium berghei NK65 infected in Webster Swiss mouse assessed as parasite growth inhibition at 50 mg/kg/day, po for 5 days by geimsa dye based microscopy relative to control; format: functional; set-up: scale not given: the % may be the effect or the level left; details: time 5 day

T1 sequence (O14746 whole entry): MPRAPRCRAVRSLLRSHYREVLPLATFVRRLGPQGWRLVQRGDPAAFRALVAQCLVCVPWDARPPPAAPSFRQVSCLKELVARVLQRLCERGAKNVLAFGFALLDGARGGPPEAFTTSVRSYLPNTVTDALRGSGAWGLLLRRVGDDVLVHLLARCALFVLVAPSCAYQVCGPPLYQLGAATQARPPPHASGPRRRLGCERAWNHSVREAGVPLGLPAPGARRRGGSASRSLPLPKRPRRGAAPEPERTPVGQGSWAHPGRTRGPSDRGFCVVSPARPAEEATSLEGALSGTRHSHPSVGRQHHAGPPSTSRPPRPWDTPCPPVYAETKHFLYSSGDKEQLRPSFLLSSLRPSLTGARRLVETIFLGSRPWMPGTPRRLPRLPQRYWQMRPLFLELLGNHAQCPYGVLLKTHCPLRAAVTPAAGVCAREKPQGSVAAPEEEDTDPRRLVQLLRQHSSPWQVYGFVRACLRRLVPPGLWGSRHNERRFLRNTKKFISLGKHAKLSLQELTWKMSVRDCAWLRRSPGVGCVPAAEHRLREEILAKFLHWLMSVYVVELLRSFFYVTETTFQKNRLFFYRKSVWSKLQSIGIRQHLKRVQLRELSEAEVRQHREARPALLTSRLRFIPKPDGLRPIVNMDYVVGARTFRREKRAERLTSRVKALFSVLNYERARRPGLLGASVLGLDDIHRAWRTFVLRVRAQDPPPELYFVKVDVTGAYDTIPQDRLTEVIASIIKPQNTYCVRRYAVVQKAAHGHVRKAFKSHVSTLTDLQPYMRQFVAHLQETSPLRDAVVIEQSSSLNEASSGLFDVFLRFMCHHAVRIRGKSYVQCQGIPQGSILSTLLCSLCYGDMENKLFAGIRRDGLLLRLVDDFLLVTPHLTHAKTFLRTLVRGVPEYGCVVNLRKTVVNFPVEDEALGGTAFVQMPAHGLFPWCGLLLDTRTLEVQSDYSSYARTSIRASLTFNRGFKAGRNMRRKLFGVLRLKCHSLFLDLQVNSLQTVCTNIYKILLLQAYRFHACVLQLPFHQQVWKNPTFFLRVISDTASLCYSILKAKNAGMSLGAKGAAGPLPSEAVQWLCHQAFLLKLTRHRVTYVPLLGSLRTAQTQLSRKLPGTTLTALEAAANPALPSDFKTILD
Sequence of DNA topoisomerase 2-beta (Homo sapiens) (Q02880 whole entry): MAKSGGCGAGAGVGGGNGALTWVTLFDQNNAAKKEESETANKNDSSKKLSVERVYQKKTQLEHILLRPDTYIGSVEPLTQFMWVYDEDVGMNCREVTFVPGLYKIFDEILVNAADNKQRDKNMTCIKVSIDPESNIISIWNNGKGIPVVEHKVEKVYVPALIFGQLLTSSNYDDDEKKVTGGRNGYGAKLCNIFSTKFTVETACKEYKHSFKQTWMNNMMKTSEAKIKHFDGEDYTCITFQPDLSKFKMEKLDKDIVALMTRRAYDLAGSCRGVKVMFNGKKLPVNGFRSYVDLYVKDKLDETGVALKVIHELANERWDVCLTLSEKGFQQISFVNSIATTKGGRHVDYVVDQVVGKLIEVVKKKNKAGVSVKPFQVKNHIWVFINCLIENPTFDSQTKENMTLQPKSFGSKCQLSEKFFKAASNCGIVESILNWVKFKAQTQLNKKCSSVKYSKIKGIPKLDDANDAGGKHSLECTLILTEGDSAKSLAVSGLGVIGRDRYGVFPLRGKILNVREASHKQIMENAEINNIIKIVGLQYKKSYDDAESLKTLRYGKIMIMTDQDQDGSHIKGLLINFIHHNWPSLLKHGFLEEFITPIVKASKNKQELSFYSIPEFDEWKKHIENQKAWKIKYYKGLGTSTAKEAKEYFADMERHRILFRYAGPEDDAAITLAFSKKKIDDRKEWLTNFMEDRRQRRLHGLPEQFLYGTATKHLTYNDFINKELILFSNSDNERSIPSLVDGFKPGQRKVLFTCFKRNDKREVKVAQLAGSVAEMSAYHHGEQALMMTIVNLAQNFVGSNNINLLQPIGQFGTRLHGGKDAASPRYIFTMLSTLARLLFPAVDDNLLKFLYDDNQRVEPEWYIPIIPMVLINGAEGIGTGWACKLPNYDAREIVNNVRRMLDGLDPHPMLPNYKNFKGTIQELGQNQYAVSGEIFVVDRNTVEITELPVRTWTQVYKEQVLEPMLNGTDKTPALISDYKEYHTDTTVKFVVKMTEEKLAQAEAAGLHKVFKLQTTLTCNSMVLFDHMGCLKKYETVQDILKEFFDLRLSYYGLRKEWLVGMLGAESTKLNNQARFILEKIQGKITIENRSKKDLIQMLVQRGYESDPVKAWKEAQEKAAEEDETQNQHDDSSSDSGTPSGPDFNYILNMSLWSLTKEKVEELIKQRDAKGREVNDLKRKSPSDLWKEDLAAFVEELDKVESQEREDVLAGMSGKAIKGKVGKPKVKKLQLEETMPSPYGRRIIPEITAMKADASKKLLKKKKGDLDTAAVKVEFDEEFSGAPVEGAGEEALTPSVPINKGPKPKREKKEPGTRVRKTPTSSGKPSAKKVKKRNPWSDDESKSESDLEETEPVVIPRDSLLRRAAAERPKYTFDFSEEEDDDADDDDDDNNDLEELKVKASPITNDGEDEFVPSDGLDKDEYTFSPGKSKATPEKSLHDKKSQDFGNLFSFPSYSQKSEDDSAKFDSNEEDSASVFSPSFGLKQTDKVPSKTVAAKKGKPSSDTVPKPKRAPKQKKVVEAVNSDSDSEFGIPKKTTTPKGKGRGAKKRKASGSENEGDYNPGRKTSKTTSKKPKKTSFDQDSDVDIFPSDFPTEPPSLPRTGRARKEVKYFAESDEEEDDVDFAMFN

Structure (SMILES): CN(C)CCc1ccc2nc3c4ccccc4n(CCN(C)C)c3cc2c1
IC50 [1]: 12.5 µM
IC50 [2]: 8.4 µM
IC50 [3]: 12.5 µM
IC50 [4]: 10.5 µM

GI50 [5]: 11.5 µM
GI50 [7]: 9.88 µM
GI50 [8]: 6.04 µM
GI50 [9]: 4.7 µM
Structure (SMILES): COc1c2c3ccccc3nc-2n(C)c2ccccc12
GI50 [6]: 7.1 µM

Structure (SMILES): Cn1cc2c3ccccc3nc-2c2ccccc21 [ISOCRYPTOLEPINE]
selectivity ratio [10]: 1.8
IC50 [11]: 0.73 µM
IC50 [12]: 0.78 µM

Structure (SMILES): C[C@H]1[C@H](OC(=O)CCC(=O)NCCCNc2c3ccccc3[n+](C)c3[nH]c4ccccc4c23)O[C@@H]2O[C@@]3(C)CC[C@H]4[C@H](C)CC[C@@H]1[C@@]24OO3
selectivity ratio [13]: 3640
Ratio IC50 [14]: 0.93
selectivity ratio [15]: 3400
IC50 [16]: 0.00045 µM
IC50 at 70 h [17]: 1.53 µM
IC50 [18]: 222 µM
IC50 [19]: 0.00042 µM
Activity [20]: 89.6%

IC50 [21]: 1.37 µM
Structure (SMILES): CN(C)c1ccc(C2SCC(=O)N2CCCNc2c3c4ccccc4nc-3n(C)c3ccccc23)cc1 (configuration not stated)

IC50 [26]: 627 µM
Structure (SMILES): CN(C)CCNc1nc2ccccc2c2[nH]c3ccccc3c12
selectivity ratio [22]: 7.6
IC50 [23]: 0.0137 µM
IC50 [24]: 0.627 µM
selectivity ratio [25]: 45.8
IC50 [27]: 0.0827 µM

IC50 [26]: 34.1 µM
Structure (SMILES): Cn1c2nc3ccccc3c-2c(NCC(C)(C)CNC(=S)Nc2ccccc2)c2cc(Cl)ccc21
IC50 [23]: 0.019 µM
IC50 [24]: 3.27 µM
selectivity ratio [25]: 164

GI50 [28]: 11.9 µM
GI50 [29]: 7.7 µM
GI50 [30]: 9.9 µM
GI50 [31]: 9.4 µM
Structure (SMILES): C=CCn1c2ccccc2c2c(C(=O)NC3CCCCC3)c3cc(F)ccc3nc21

IC50 [32]: 1.55 µM
Structure (SMILES): OCCCNc1c2ccccc2nc2c1[nH]c1ccccc12

IC50 [33]: 0.055 µM
IC50 [35]: 0.02 µM
Structure (SMILES): Cc1cccc2c1c1nc3c(C(=O)NCCN(C)C)cccc3cc1n2C
IC50 [34]: 0.018 µM

IC50 [32]: 1.12 µM
Structure (SMILES): CN(C)CCNc1c2ccccc2nc2c1[nH]c1ccccc12

IC50 [36]: 6.3 µM
Structure (SMILES): c1cc2nc3c(cc2cc1CCCN1CCCC1)[nH]c1ccc(CCCN2CCCC2)cc13

Structure (SMILES): COc1cc2c(cc1CN1CCC(N3CCCCC3)CC1)[nH]c1c3ccc(Cl)cc3ncc21
IC50 [37]: 0.05 µM

IC50 [32]: 2.35 µM
Structure (SMILES): OCCNc1c2ccccc2nc2c1[nH]c1ccccc12

Structure (SMILES): COc1cc2c(cc1CN1CCN(C)CC1)[nH]c1c3ccc(Cl)cc3ncc21
IC50 [27]: 0.0024 µM

IC50 [38]: 15.7 µM
Structure (SMILES): CN(CCCNc1c2ccccc2nc2c1[nH]c1ccccc12)C(=O)c1cccc(B(O)O)c1

Structure (SMILES): C[C@H]1[C@H](OC(=O)CCC(=O)NCCCNc2c3ccccc3nc3c2[nH]c2ccccc23)O[C@@H]2O[C@@]3(C)CC[C@H]4[C@H](C)CC[C@@H]1[C@@]24OO3
selectivity ratio [15]: 1720
IC50 [18]: 17.1 µM

IC50 [26]: 16.8 µM
Structure (SMILES): NCCCNc1c2ccccc2nc2c1[nH]c1ccccc12
selectivity ratio [25]: 16

Structure (SMILES): COc1ccc2[nH]c3c4ccc(Cl)cc4ncc3c2c1
IC50 [39]: 0.002 µM

IC50 [42]: 840 µM
Structure (SMILES): O=C(NCCN1CCCCC1)c1c2cc(Br)ccc2nc2c1[nH]c1ccccc12
IC50 [40]: 6.3 µM
IC50 [41]: 5 µM
Activity [43]: 27%
IC50 [44]: 1.3 µM
selectivity ratio [45]: 46.9

MIC [46]: 0.25 µM (≈ 0.0581 µg/mL)
IC50 [28]: 0.63 µM
IC50 [29]: 1.05 µM
Structure (SMILES): C[n+]1c2ccccc2cc2[n-]c3ccccc3c21 [CRYPTOLEPINE]
Activity [47]: 43%

Structure (SMILES): C[C@H]1[C@H](OC(=O)CCC(=O)NCCCNc2nc3ccccc3c3[nH]c4ccccc4c23)O[C@@H]2O[C@@]3(C)CC[C@H]4[C@H](C)CC[C@@H]1[C@@]24OO3
selectivity ratio [13]: 3280
IC50 [18]: 15.7 µM

Source: ChEMBL document CHEMBL5113378, “Role of basic aminoalkyl chains in the lead optimization of Indoloquinoline alkaloids” (Eur J Med Chem, 2022)
